Columns and labels:
human tyrosinase = molecular target: T1, human tyrosinase (Homo sapiens, UniProt P14679); test: Anti-human tyrosinase activity in normal human melanocytes (MBTH/L-Dopa, OD490); assay type: cell-based
T1 construct: endogenous in cells; host or cells: normal human melanocytes obtained from abdominal plasty
T1 sequence (P14679 19-529): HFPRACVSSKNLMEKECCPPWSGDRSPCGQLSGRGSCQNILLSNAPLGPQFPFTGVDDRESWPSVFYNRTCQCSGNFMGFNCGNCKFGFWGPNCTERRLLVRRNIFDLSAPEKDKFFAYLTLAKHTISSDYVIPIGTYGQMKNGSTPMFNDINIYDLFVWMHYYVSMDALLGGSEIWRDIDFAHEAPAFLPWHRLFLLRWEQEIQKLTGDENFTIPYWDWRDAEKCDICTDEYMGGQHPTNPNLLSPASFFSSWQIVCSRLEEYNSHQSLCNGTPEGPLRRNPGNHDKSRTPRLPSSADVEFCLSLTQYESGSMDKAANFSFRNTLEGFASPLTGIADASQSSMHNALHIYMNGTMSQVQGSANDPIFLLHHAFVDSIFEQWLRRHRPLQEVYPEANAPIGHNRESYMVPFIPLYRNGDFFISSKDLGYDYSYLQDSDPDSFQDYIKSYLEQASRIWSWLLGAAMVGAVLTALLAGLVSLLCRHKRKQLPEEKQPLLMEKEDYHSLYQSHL
Procedure: Study of the inhibition of tyrosinase by the hydroxytyrosol dihydrosinapate of the invention of formula (IIa), in comparison with the prior-art ferulic acid derivative, by quantitative analysis of the human tyrosinase activity of melanocytes cultured as a monolayer following application of the compound under test. Normal human melanocytes (obtained from abdominal plasty) are seeded in a 24-well plate at 80000 cells per well. They are cultured until confluence, and the compounds under test are applied in the culture media for 24 hours. After 24 hours, the media are removed and the melanocytes are detached by mechanical action. Extraction is carried out by thermal shock and then the supernatants are recovered and incubated with MBTH (methyl benzothiazolinone-hydrazone) (Sigma) and L-Dopa (Sigma). The optical density (OD) at 490 nm (OD490) is measured after 30 minutes of incubation, and the inhibition of tyrosinase is calculated according to the following formula: % inhibition=100−[100×(OD490 sample/level of proteins in sample)/(OD490 negative control/level of proteins in negative control)] The OD490 is therefore related to the level of protein, which is the measurement in each culture well. […] The results are presented as % inhibition of activity of tyrosinase, in Table 2.

[1] = TBARS test, lipid peroxidation of UVB-irradiated liposomal suspension; details: UVB 2 hours
Procedure: Study of the radical scavenger activity of the hydroxytyrosol dihydrosinapate of the invention of formula (IIa) and of the prior-art ferulic acid derivative by the TBARS test.
Two identical 96-well plates are produced according to a defined plate plan. 50 μL of a sample mixture prepared by diluting a solution of a test compound or of a negative control (vehicle medium without test compound) or of a positive control (D-L-alpha-tocopherol) to 1/10 in a liposomal suspension are distributed per well, in quadruplicate. One of the two plates is irradiated with UVB for 2 hours. The other plate, serving as a control, is incubated in the absence of light and at ambient temperature for 2 hours.
At the end of irradiation, an amount of 100 μL of 20% trichloroacetic acid solution was added per well, followed by an amount of 34 μL of 1% thiobarbituric acid solution. The plates are then incubated at 105° C. for 25 minutes.
The contents of each well are centrifuged at 5700 rpm for 5 minutes, and then an amount of 100 μL of supernatant was deposited in new plates, according to the same plan, and the absorbance was read off at 530 nm.
The positive experimental control was D-L-alpha-tocopherol, at a concentration of 1%, for which a percentage inhibition of 80% was obtained.

inhibition at 1 µM (human tyrosinase; normal human melanocytes, 1 μM, 24 hours, read-out: % inhibition of activity of tyrosinase +/− standard deviation): -5.85%
inhibition at 10 µM (human tyrosinase; normal human melanocytes, 10 μM, 24 hours, read-out: % inhibition of activity of tyrosinase +/− standard deviation): -4.53%
inhibition at 100 µM (human tyrosinase; normal human melanocytes, 100 μM, 24 hours, read-out: % inhibition of activity of tyrosinase +/− standard deviation): -36.6%
Compound: COc1cc(CCC(=O)OCCc2ccc(O)c(O)c2)cc(OC)c1O [Hydroxytyrosol dihydrosinapate (IIa), hydroxytyrosol dihydrosinapate]
inhibition of the activity of human tyrosinase (in words) (human tyrosinase; human tyrosinase in the melanocytes): does not inhibit the activity of the human tyrosinase
% inhibition of lipid peroxidation ([1]; 1 μM after dilution to 1/10th in the liposomal suspension): −10.58%
% inhibition of lipid peroxidation ([1]; 5 μM after dilution to 1/10th in the liposomal suspension): 8.21%
% inhibition of lipid peroxidation ([1]; 30 μM after dilution to 1/10th in the liposomal suspension): 7.14%
% inhibition of lipid peroxidation ([1]; 50 μM after dilution to 1/10th in the liposomal suspension): 19.12%
% inhibition of lipid peroxidation ([1]; 100 μM after dilution to 1/10th in the liposomal suspension): 41.95%
% inhibition of lipid peroxidation ([1]; 1000 μM after dilution to 1/10th in the liposomal suspension): 77.04%
